Values after ≈ are worked out from the molar mass of the structure shown.
What was measured:
Anas platyrhynchos = details: oral, mortality
Apis mellifera = details: acute, duration: 48 hours, mortality
Canidae = details: acute; oral; Dog Other; mortality
Daphnia magna = details: chronic/long-term; duration: 21 days; reproduction
Mus musculus = details: chronic; duration: 2 years; histopathology: nonneoplastic
Oncorhynchus mykiss = details: mortality
Oryctolagus sp. = details: developmental; development
Pleurozium sp. = details: acute; duration: 72 hours; biomass
Rattus norvegicus = details: for NOAEL: histopathology: nonneoplastic
Tagia sp. = details: acute; mortality
Aphidius rhopalosiphi = assay: LR50; higher = less toxic; details: not reported; mortality
Typhlodromus pyri = assay: LR50; higher = less toxic; details: not reported; mortality

Compound: CCOc1ccc(C(C)(C)COCc2cccc(Oc3ccccc3)c2)cc1 [Etofenprox]
- LD50 (Anas platyrhynchos; acute, unspecified): > 2000 mg/kg
- LC50 (Anas platyrhynchos; short-term, feed): > 1280 mg/kg-day
- LD50 (Apis mellifera; dermal): 0.015 µg/piece
- LD50 (Apis mellifera; oral, unspecified): 0.024 µg/piece
- LD50 (Canidae): > 5000 mg/kg
- LC50 (Colinus virginianus; acute, oral, diet, mortality): > 806 mg/kg-day
- NOEL (Colinus virginianus; reproduction developmental): 89.6 mg/kg-day
- NOEC (Daphnia magna): 5.4e-05 mg/L
- NOAEL (Mus musculus): 3.1 mg/kg-day
- LC50 (Oncorhynchus mykiss; acute, duration: 96 hours): 2.7 ng/mL (≈ 7.17 nM)
- NOEC (Oncorhynchus mykiss; chronic/long-term, duration: 21 days): 0.0021 mg/L
- NOAEL (Oryctolagus sp.): 100 mg/kg-day
- NOEC (Pleurozium sp.): 0.15 mg/L
- LD50 (Rattus norvegicus; acute, oral, mortality): > 2000 mg/kg
- NOAEL (Rattus norvegicus; chronic, duration: 2 years): 3.7 mg/kg-day
- NOAEL (Rattus norvegicus; subchronic, duration: 13 weeks, oral, diet): 20 mg/kg-day
- LC50 (Tagia sp.): > 47.2 mg/kg
- LR50 (Aphidius rhopalosiphi): 0.42 g/ha
- LR50 (Typhlodromus pyri): 0.7 g/ha
